Source: patent US10973849B2, “Rhenium complexes and methods of use for treating cancer” (CORNELL UNIVERSITY, priority 2016, dated 2021)
Where two headings read alike, the source gives them in different places.

Assays:
[1] = test system: human cervical cancer cells (HeLa); assay: In vitro anticancer activity (MTT) of [Re(CO)3(N—N)(H2O)][OTf] complexes in HeLa cells; format: cell-based; details: concentration at which cell proliferation is inhibited by 50%, read-out: IC50 of Re—(H2O) Complex
Description: (§1) HeLa (cervical cancer) cell line was cultured using Dulbecco's Modified Eagle's Medium (DMEM) supplemented with 10% fetal bovine serum (FBS). A2780 (ovarian cancer) and A2780CP70 (cisplatin-resistant ovarian cancer) cell lines were cultured as monolayers with Roswell Park Memorial Institute (RPMI)-1640 culture media supplemented with 10% fetal bovine serum. All cell lines were grown in a humidified incubator at 37° C. with an atmosphere of 5% CO2. Cells were passed at 80-90% confluence, using trypsin/EDTA. Cells were tested monthly for mycoplasma contamination with the PlasmoTest™ mycoplasma detection kit from InvivoGen.
(§2) All compounds were dissolved in phosphate-buffered saline (PBS, pH 7.4) to prepare a 1-2 mM stock solution. For single dose studies, only HeLa cells were used. For both the single dose and full dose response, all cells were grown to 80-90% confluence, detached with trypsin/EDTA, seeded in 96-well plates at 2000 cells/well for HeLa cells and 4000 cells/well for A2780 and A2780CP70 cells in 100 μL of growth media, and incubated for 24 hours. The medium was removed and replaced with fresh medium (200 μL) containing a single concentration of a rhenium(I) complex or media. The cells were then incubated for 4 hours, and then the cells were dosed with 365 nm for 1 hour (one plate under the same dosing conditions was kept outside the incubator in the dark as a control). After exposure to light, the plates incubated for an additional 44 hours, the medium was removed from the wells, and (3(4,5-dimethylthiazol-2-yl)-2,5-tetrazolium bromide (MTT) in RPMI (200 μL, 1 mg/mL) was added. After 4 hours, the MTT/RPMI solution was removed, and the formazan crystals were dissolved in 200 μL of an 8:1 mixture of DMSO and pH 10 glycine buffer. The absorbance at 570 nm in each well was measured using a BioTek Synergy™ HT plate reader. Cell viability was determined by normalizing the absorbance of the treated wells to untreated wells. All compounds that had less than 50% cell viability were analyzed using a full dose response. The % viability data is an average of three independent experiments with six replicates per concentration. The same procedure was followed as above for the full dose response but instead, after 24 hours, varying concentrations of the desired compounds were added. Cell viability was again determined by normalizing the absorbance of the treated wells to untreated wells The concentration of the compound versus % viability was plotted to produce dose-response curves, which were analyzed using a logistic sigmoid function fit with MagicPlot Pro™ software. The reported IC50 values are the average of three independent experiments with six replicates per concentration level.
The in vitro anticancer activities of these complexes were tested in human cervical cancer cells (HeLa), and the results are provided below in Table 1. […] The Hill-Slope is a quantitative measure of the steepness of the dose-response curve.

[2] = test system: wild-type (KB) cancer cells; assay: Cytotoxicity in wild-type KB cancer cells; format: cell-based
Description: (§3) The Re complex containing the 2,9-dimethyl phen ligand was also tested in wild-type (KB) and cisplatin-resistant (KBCP20) cancer cells.

[3] = test system: cisplatin-resistant (KBCP20) cancer cells; assay: Cytotoxicity in cisplatin-resistant KBCP20 cancer cells; format: cell-based; details: for IC50: cisplatin-resistant cells, read-out: IC50 KBCBP20; for RF (resistance factor): ratio of IC50 values in cisplatin-resistant versus wild-type cell lines
Description: as §3

[4] = test system: HeLa (cervical cancer) cell line; assay: MTT cell viability of phosphino-Re(I) complexes in HeLa cells, dark or 365 nm light; format: cell-based, human; details: for Single Dose Cell Viability (%) Light / Single Dose Cell Viability (%) Dark: HeLa cells, single concentration; for Single Dose Cell Viability (%) Dark: kept in the dark
Description: as §1, §2

[5] = test system: A2780 (ovarian cancer) cell line; assay: MTT cell viability of phosphino-Re(I) complexes in A2780 cells, dark or 365 nm light; format: cell-based
Description: as §1, §2

[6] = test system: A2780CP70 (cisplatin-resistant ovarian cancer) cell line; assay: MTT cell viability of phosphino-Re(I) complexes in A2780CP70 cells, dark or 365 nm light; format: cell-based
Description: as §1, §2

[7] = Table 4, HeLa, 365 nm for 1 hour, read-out: IC50 Value (μM) HeLa (light)
[8] = Table 4, HeLa, dark, read-out: IC50 Value (μM) HeLa (dark)
[9] = Table 3, full dose response, 365 nm for 1 hour, read-out: IC50 Value (μM) Light
[10] = Table 3, full dose response, dark, read-out: IC50 Value (μM) Dark
[11] = A2780, 365 nm for 1 hour, read-out: IC50 Value (μM) A2780 (light)
[12] = A2780, dark, read-out: IC50 Value (μM) A2780 (dark)
[13] = A2780CP70, 365 nm for 1 hour, read-out: IC50 Value (μM) A2780CP70 (light)
[14] = A2780CP70, dark, read-out: IC50 Value (μM) A2780CP70 (dark)

Molecule	IC50 [1]	IC50 [4, 9]	IC50 [4, 10]	Single Dose Cell Viability (%) Light ([4]; 365 nm for 1 hour)	Single Dose Cell Viability (%) Dark [4]	other results
Cc1ccc2ccc3ccc(C)nc3c2n1.O.O=S(=O)([O-])C(F)(F)F.[C-]#[O+].[C-]#[O+].[C-]#[O+].[Re+] [2,9-dimethyl phen, [Re(CO)3(N—N)(H2O)][OTf]]	0.97 ± 0.21 µM	–	–	–	–	IC50 [2]: 0.4 µM; IC50 [3]: 2 µM; RF (resistance factor) [3]: 5
N.N.[Cl][Pt][Cl] [cisplatin, reference compound]	3 ± 1.2 µM	–	–	–	–	IC50 [2]: 0.8 µM; IC50 [3]: 50 µM; RF (resistance factor) [3]: 62.5
Re(CO)2(phen)(DAPTA)(H2O) [DAPTA-phen dicarb (3b)]	–	–	–	–	–	IC50 [4, 7]: > 200 µM; IC50 [4, 8]: > 200 µM
Re(CO)3(bpy)(DAPTA) [DAPTA-bpy (9)]	–	14.9 ± 3.2 µM	> 200 µM	–	–	–
Re(CO)3(bpy)(PTA) [PTA-bpy (7)]	–	–	–	90.5 ± 4.1%	97.9 ± 3.7%	–
Re(CO)3(bpy)(THP) [THP-bpy (8)]	–	–	–	73.1 ± 6.4%	98.9 ± 1.6%	–
Re(CO)3(dmbpy)(DAPTA) [DAPTA-dmbpy (12)]	–	60.3 ± 18.2 µM	> 200 µM	–	–	–
Re(CO)3(dmbpy)(PTA) [PTA-dmbpy (10)]	–	–	–	82.5 ± 9.7%	94.4 ± 4.9%	–
Re(CO)3(dmbpy)(THP) [THP-dmbpy (11)]	–	–	–	30.7 ± 14.6%	93.3 ± 6.0%	–
Re(CO)3(dmobpy)(DAPTA) [DAPTA-dmobpy (15)]	–	26.4 ± 9.2 µM	> 200 µM	–	–	–
Re(CO)3(dmobpy)(PTA) [PTA-dmobpy (13)]	–	–	–	96.0 ± 6.8%	98.2 ± 3.2%	–
Re(CO)3(dmobpy)(THP) [THP-dmobpy (14)]	–	68 ± 4.3 µM	72.6 µM	12.7 ± 5.8%	57.5 ± 11.0%	–
Re(CO)3(dmphen)(DAPTA) [DAPTA-dmphen (6)]	–	19.2 ± 2.9 µM	> 200 µM	–	–	–
Re(CO)3(dmphen)(PTA) [PTA-dmphen (4)]	–	–	–	87.0 ± 8.0%	90.0 ± 8.8%	–
Re(CO)3(dmphen)(THP) [THP-dmphen (5)]	–	9.6 ± 4.2 µM	> 200 µM	1.3 ± 1.1%	61.8 ± 6.2%	–
Re(CO)3(phen)(DAPTA) [DAPTA-phen (3)]	–	5.9 ± 1.4 µM	> 200 µM	–	–	IC50 ([4]; HeLa, 365 nm for 1 hour, w/ oxyhemoglobin, read-out: IC50 Value (μM) HeLa (light)): > 200 µM; IC50 ([4]; HeLa, dark, w/ oxyhemoglobin, read-out: IC50 Value (μM) HeLa (dark)): > 200 µM; IC50 [4, 7]: 5.9 ± 1.4 µM; IC50 [4, 8]: > 200 µM; IC50 [5, 11]: 2.2 ± 1.1 µM; IC50 [5, 12]: > 200 µM; IC50 [6, 13]: 3.2 ± 0.7 µM; IC50 [6, 14]: > 200 µM
Re(CO)3(phen)(PTA) [PTA-phen (1)]	–	> 200 µM	> 200 µM	99.6 ± 0.7%	99.4 ± 1.0%	IC50 [4, 7]: > 200 µM; IC50 [4, 8]: > 200 µM; IC50 [5, 11]: 53.1 ± 2.6 µM; IC50 [5, 12]: > 200 µM; IC50 [6, 13]: > 200 µM; IC50 [6, 14]: > 200 µM
Re(CO)3(phen)(THP) [THP-phen (2)]	–	26.4 ± 9.2 µM	> 200 µM	2.5 ± 1.8%	91.8 ± 8.7%	IC50 [4, 7]: 26.4 ± 9.2 µM; IC50 [4, 8]: > 200 µM; IC50 [5, 11]: 4.6 ± 1.4 µM; IC50 [5, 12]: > 200 µM; IC50 [6, 13]: 29.9 ± 7.7 µM; IC50 [6, 14]: > 200 µM
[Re(CO)3(N—N)(H2O)][OTf] [4,4′-dimethoxy bpy]	8.8 ± 2.4 µM	–	–	–	–	–
[Re(CO)3(N—N)(H2O)][OTf] [4,4′-dimethyl bpy]	5.8 ± 3.4 µM	–	–	–	–	–
[Re(CO)3(N—N)(H2O)][OTf] [4,4′dimethylester bpy]	210 ± 30 µM	–	–	–	–	–
[Re(CO)3(N—N)(H2O)][OTf] [4,7-diphenyl phen]	15 ± 7 µM	–	–	–	–	–
[Re(CO)3(N—N)(H2O)][OTf] [bpy]	15 ± 5 µM	–	–	–	–	–
[Re(CO)3(N—N)(H2O)][OTf] [phen]	9.7 ± 5.8 µM	–	–	–	–	–
